Laboratory results from US20240400546A1, “COMPOUNDS AND USES THEREOF” (JANSSEN PHARMACEUTICA NV, priority 2016, published 2024).

Experiments:
Assay type in all cases: cell-based
Ole1 = target: T1, Ole1 (Saccharomyces cerevisiae, UniProt P21147); test: Growth inhibition of yeast expressing Ole1 as sole desaturase; conditions: for OLE1 % Max Inhibition: yeast expressing Ole1 as sole desaturase
T1 construct: expressed in transfected cells; host or cells: S. cerevisiae ole1Δ strain (W303 pdr1Δ pdr3Δ background), plasmid pRS316 with TDH3 promoter and CYC1 terminator
T1 sequence (P21147 1-510): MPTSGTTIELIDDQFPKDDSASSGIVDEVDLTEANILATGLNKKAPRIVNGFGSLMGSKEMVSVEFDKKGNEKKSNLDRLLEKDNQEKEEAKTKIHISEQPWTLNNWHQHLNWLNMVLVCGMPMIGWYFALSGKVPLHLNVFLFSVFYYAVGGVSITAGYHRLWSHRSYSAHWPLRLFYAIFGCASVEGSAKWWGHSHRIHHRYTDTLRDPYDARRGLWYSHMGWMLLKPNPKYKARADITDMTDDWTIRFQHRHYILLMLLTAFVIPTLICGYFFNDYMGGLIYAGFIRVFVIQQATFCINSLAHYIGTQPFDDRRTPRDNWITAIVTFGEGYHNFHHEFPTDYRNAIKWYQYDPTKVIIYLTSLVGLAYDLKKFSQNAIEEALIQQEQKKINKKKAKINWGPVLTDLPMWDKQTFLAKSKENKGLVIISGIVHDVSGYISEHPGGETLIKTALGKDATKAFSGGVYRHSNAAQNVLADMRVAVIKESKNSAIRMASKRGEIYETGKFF
Method: (§1) Strain ole1Δ (yeast ole1 deletion mutant) was constructed by deleting OLE1 with NAT-MX6 in BY4741, amplifying the deletion cassette from the genomic DNA of the resulting strain with primers flanking the ORF by 1000 bp upstream and downstream, transforming the resulting deletion cassette into W303 pdr1Δ pdr3Δ, and plating transformants on YPD media containing G418 (200 μg/mL) and nourseothricin (100 μg/mL) with 0.01% TWEEN®-20 and 0.5 mM oleic and palmitoleic acids.
(§2) The coding sequence of yeast OLE1 was also cloned into this plasmid). These clones were then transformed into the ole1Δ strain and plated on CSM-Ura media (CSM lacking uracil) with 2% glucose (w/v) and independent colonies were isolated and amplified.
(§3) All compound profiling experiments were performed using the same basic protocol. Different genetic backgrounds (e.g., gene deletions) or conditions (e.g., addition of oleic and palmitoleic acid) were replaced as indicated below.
(§4) Yeast were cultured using standard techniques in complete synthetic media (CSM) and yeast nitrogen base supplemented with 2% (w/v) carbon source (glucose, raffinose, or galactose) to regulate the expression of the toxic disease protein. An initial starter culture was inoculated in 3 mL CSM-Glucose media and incubated overnight in a 30° C. shaker incubator (225 rpm). Saturated morning cultures were then diluted 1:20 in fresh CSM-Raffinose media and grown for 6 h to an OD600 (optical density) of ˜0.4-0.8 at 30° C. with shaking.
(§5) Compound administration was performed in two separate steps. First, 15 μL of CSM-Galactose (induces expression of toxic protein) was dispensed into clear 384 well assay plates using a MULTIDROP™ Combi reagent dispenser. […] The cultures described above were then diluted to a 2× concentration (0.03 and 0.08 for alpha-synuclein and ApoE, final OD600 of 0.015 and 0.04) in CSM-Galactose. For wild-type and Ole1/SCD1/SCD5 plasmid-containing strains, the 2× cell density was 0.02. […] For 96-well assays (FIGS. 1A and 1B), compound dilutions in DMSO were generated in 96 well plates and 1 μL was manually pipetted into 96 well clear bottom assay plates.
(§6) For experiments using a plasmid-borne copy of Ole1, SCD1, or SCD5 (FIGS. 3B, 6, and 7), media lacking uracil (SX-Ura, where X is glucose, raffinose, or galactose), was used for all steps of the compound profiling protocol to ensure its maintenance throughout the assay.
(§7) After yeast delivery, assay plates were incubated under humidified conditions at 30° C. for 24 to 40 h. ApoE4 rescue experiments were stopped at 24 h, aSyn experiments at 40 h, Ole1 at 24 h, and SCD1/SCD5 at 40 h. The growth of yeast was monitored by reading the OD600 of each well using a microplate reader (Perkin Elmer EnVision™).

SCD5 = target: T2, SCD5 (Homo sapiens, UniProt Q86SK9); test: Growth inhibition of humanized yeast expressing SCD5 as sole desaturase
T2 construct: host or cells: S. cerevisiae ole1Δ strain, plasmid pRS316 with TDH3 promoter and CYC1 terminator
T2 sequence (Q86SK9 1-330): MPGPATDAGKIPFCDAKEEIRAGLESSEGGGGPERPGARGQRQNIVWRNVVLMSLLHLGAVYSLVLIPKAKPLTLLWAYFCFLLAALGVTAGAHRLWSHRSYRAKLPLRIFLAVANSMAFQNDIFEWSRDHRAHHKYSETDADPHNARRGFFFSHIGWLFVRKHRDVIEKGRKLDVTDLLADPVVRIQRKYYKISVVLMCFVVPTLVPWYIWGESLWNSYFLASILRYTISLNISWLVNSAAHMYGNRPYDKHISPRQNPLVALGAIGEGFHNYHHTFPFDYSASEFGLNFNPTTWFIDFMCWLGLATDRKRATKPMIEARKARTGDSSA
Method: as §1, §2, §3, §4, §5, §6, §7

SCD1 = target: T3, SCD1 (Homo sapiens, UniProt O00767); test: Growth inhibition of humanized yeast expressing SCD1 as sole desaturase
T3 construct: host or cells: S. cerevisiae ole1Δ strain, plasmid pRS316 with TDH3 promoter and CYC1 terminator
T3 sequence (O00767 1-359): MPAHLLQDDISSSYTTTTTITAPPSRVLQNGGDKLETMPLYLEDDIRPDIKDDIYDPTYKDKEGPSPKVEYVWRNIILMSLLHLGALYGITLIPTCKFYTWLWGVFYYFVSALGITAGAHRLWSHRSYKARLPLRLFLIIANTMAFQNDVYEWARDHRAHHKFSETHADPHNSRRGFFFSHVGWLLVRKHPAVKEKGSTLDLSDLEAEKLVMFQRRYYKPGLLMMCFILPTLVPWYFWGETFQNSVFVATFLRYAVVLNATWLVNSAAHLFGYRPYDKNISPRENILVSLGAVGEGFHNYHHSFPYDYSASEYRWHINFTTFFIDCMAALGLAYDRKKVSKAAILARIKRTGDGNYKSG
In short: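 ole1Δ yeast (W303 pdr1Δ pdr3Δ background) carried plasmid-borne human SCD1, human SCD5 or yeast Ole1 as the sole desaturase and were grown in uracil-lacking galactose medium in 384-well plates. Starting 2× density was OD600 0.02, with incubation at 30 °C. Growth was read as OD600 at 24 h for Ole1 and at 40 h for SCD1 and SCD5.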

[1] = humanized yeast expressing SCD5
[2] = humanized yeast expressing SCD1
[3] = humanized yeast expressing human SCD5
[4] = humanized yeast expressing human SCD1

Row | Compound | OLE1 % Max Inhibition (Ole1) [%] | SCD5 % Max Inhibition (SCD5; [1]) [%] | SCD1 % Max Inhibition (SCD1; [2]) [%] | IC50 (SCD5; [3]) [µM] | IC50 (SCD1; [4]) [µM] | also measured
1 | COc1ccc(-c2noc(C3CCN(C(=O)[C@H]4CC(=O)N(c5ccc(C)c(C)c5)C4)CC3)n2)cc1OC (single isomer, unassigned) [Compound 67] | 85.79 | 4.32 | 54.45 | – | – | –
2 | COc1cccc(-c2noc(C3CCN(C(=O)[C@@H]4CC(=O)N(c5ccc(C)c(C)c5)C4)CC3)n2)c1 (single isomer, unassigned) [Compound 69] | 105.31 | 8.06 | 60.59 | – | – | –
3 | Cc1nnc(-c2ccc(N3CCC(Oc4cc(F)ccc4Cl)CC3)nn2)o1 [CAY10566, reference compound] | – | – | – | – | – | Sensitivity of yeast expressing OLE1 to known SCD1/SCD5 inhibitors (Ole1; FIG. 6): resistant; half-maximal inhibitory concentration (IC50), SCD5 humanized strain (SCD5; FIG. 6): low nanomolar; half-maximal inhibitory concentration (IC50), SCD1 humanized strain (SCD1; FIG. 6): low nanomolar
4 | COc1ccc(-c2noc(C3CCN(C(=O)[C@H]4CC(=O)N(c5ccccc5)C4)CC3)n2)cc1OC [Compound 65] | 4.02 | 73.43 | 83.43 | – | – | IC50 (SCD5; [1]): > 45 µM; IC50 (SCD1; [2]): > 45 µM
5 | COc1ccc(-c2noc(C3CCN(C(=O)[C@@H]4CC(=O)N(c5ccccc5)C4)CC3)n2)cc1OC [Compound 66] | 99.71 | 19.53 | 94.04 | – | – | IC50 (SCD5; [1]): > 45 µM; IC50 (SCD1; [2]): > 45 µM
6 | COc1ccc(-c2noc(C3CCN(C(=O)[C@@H]4CC(=O)N(c5ccc(C)c(C)c5)C4)CC3)n2)cc1OC [Compound 68] | 9.74 | 3.75 | 22.28 | – | – | IC50 (SCD5; [1]): > 45 µM; IC50 (SCD1; [2]): > 45 µM
7 | CCN1C(=O)CN(C)c2ccc(-c3noc(C4CCN(C(=O)CNC(=O)c5ccccc5)CC4)n3)cc21 [Compound 298] | 6.6 | – | – | > 45 | > 45 | SCD5 % Max Inhibition (SCD5; [3]): 21.3%; SCD1 % Max Inhibition (SCD1; [4]): 92.3%
8 | Cc1nn(C)c2cc(-c3noc(C4CCN(C(=O)OC(C)(C)C)CC4)n3)ccc12 [Compound 300] | 79.7 | – | – | > 45 | > 45 | SCD5 % Max Inhibition (SCD5; [3]): 36.0%; SCD1 % Max Inhibition (SCD1; [4]): 78.1%
9 | Cc1nn(C)c2cc(-c3nsc(C4CCN(C(=O)CNC(=O)c5cccc(C#N)c5)CC4)n3)ccc12 [Compound 322] | 9.0 | – | – | > 45 | > 45 | SCD5 % Max Inhibition (SCD5; [3]): 29.8%; SCD1 % Max Inhibition (SCD1; [4]): 73.6%
10 | O=C(c1ccccc1)N1CCC(c2nc(Cl)no2)CC1 [Compound 351] | – | – | – | ≥ 45 | – | –
11 | CC(C)n1ncc2ccc(-c3noc(N4CCN(C(=O)OC5CC5)CC4)n3)cc21 [Compound 496] | – | – | – | 0.445 | – | –
12 | CC(C)n1ncc2ccc(-c3noc(C4CCNCC4)n3)cc21 [Compound 500] | – | – | – | > 45 | > 45 | –
13 | CC(C)n1ncc2ccc(N3CC4(CCN(C(=O)OC(C)(C)C)CC4)C3)cc21 [Compound 511] | – | – | – | 3.39 | > 45 | –
